Source: patent publication US7628979B1, “Use of calco oil blue V in bait formulations for marking and controlling subterranean termites” (The United States of America as represented by the …, priority 2005, dated 2009)

What was measured:
[1] = tested on: Eastern subterranean termites; assay: In-field marking and control, bait at infested trees, site 3; format: in vivo; settings: Site 3 (Ligastrum), 250 ppm bait
Source text: Formosan subterranean termite and native subterranean termite infested trees (Water Oaks and Legastrums) in New Orleans, La. were chosen for this study. Three sites were selected located at the Southern Regional Research Center campus. Site 1 was located near the service building next to an old water oak tree, site 2 was located in the compound area near ligastrum trees, and site 3 near ligastrum trees outside the compound area. Sites 1 and 2 were active with Formosan subterranean termites and site 3 with Eastern subterranean termites.
The colored bait matrix at 250 ppm was encapsulated as described above and placed directly in the base of the trees where termites were foraging, making sure that the encapsulated colored bait matrix was covered with soil or with a piece of wood or brick on top of it to prevent desiccation. The bait was periodically inspected for consumption and termite activity. The field study started in early August and was completed by the end of the following June. During winter (December-February) termite activity decreased considerably, but by April termite activity and foraging resumed and the blue colored matrix was replaced by bait formulation containing 250 ppm of chitin synthesis inhibitors to kill the colonies. Diflubenzuron was used in 2 of the sites and chlorfluazuron was used in the remaining site.

C. formosanus = assay: Preliminary laboratory dose-range test of colored bait matrix; format: in vivo, Coptotermes formosanus
Experimental: (3) Incorporation of Nutrients. The dry colored alpha cellulose was then mixed with the nutritive liquid (described in U.S. Pat. No. 6,585,991 which is incorporated by reference in its entirety). The nutritive liquid was prepared by weighing 1.25 g lecithin (USB #18240), 0.450 g ergosterol (Sigma #E-6510), 3.75 g ethyl alcohol (Quantum MT #194A31), and 650 g drinking water (Barbe's dairy, West Wego, La.) into a 1 L glass bottle and mixing well using a glass bar. The opening of the bottle was covered with a foam stopper, the bottle cap was loosely placed on top of the stopper, and the stopper covered with foil. After autoclaving for 20 min at 120° C., the bottle was closed tightly and allowed to cool down. Under a laminar flow hood, yeast hydrolysate (ICN Biomed. #103304) was added to the lecithin-containing mixture using a sterile spatula and the mixture was shaken until the yeast hydrolysate was incorporated. The bottle was tightly closed. Using a sterile spatula, 667 ml lecithin-yeast hydrolysate-containing mixture was added to 333 g colored cellulose (at each of the calco oil blue V concentrations) and mixed well. The beaker was covered with foil and plastic to avoid contamination and loss of water. This mixture was stored at 5° C. up to 8 months or at room temperature for at least a month. The mixture was compacted and divided into pieces of about 25-50 g each at colorant concentrations of 50, 100, 225, 250, 500, and 750 ppm respectively. Chitin synthesis inhibitors such as Diflubenzuron (Ensystex) at a given concentration of 50, 100, 175, 200, and 250 ppm were individually weighed, dissolved in minimal amount of acetone (J. T. Baker #9010-03) in a 50 ml plastic tube, and added to the sterile liquid solution.
A concentration of 225 ppm Calco oil blue was effective as bait active ingredient taking a mean time to kill C. formosanus of 2.0 months under laboratory conditions.

[2] = tested on: Formosan subterranean termite workers; assay: Laboratory foraging-box bait test, groups of 1000 termite workers (colorant:CSI dose determination); format: in vivo, Coptotermes formosanus; settings: for Groups of 1000 termite workers alive: of 12 boxes
Experimental: Under a laminar flow hood, 66 g colored cellulose powder at concentration of 50, 100, 225, 250, 500, or 750 ppm (0.010, 0.020, 0.045, 0.050, 0.100, or 0.150 g, respectively) from example 1 was mixed with 135 ml of sterile nutritional supplement (formulated as in example 1) in a 250 ml sterile glass beaker (prepared as reported by Rojas, M. G. and Morales-Ramos, J. A., “Bait matrix for delivery of chitin synthesis inhibitors to the Formosan subterranean termite [Isoptera: Rhinotermitidae],” J. Econ. Entomol., 94(2): 506-510 (2001)). A dose of 175 ppm of diflubenzuron was added to the formulations containing 50 and 100 ppm of calco oil blue. A lower dose of 50 ppm of diflubenzuron was added to the formulations containing 225 and 500 ppm of calco oil blue. The mixture was manually homogenized using a stainless steel spatula. To encase the bait matrix, tubes made of fibrous casing material (#124B; L.E.M. Products, Inc., Miamitown, Ohio) were cut into 150 mm long portions as reported by Rojas and Morales-Ramos (2001) supra. Fifty grams of bait matrix containing the blue colorant was compacted into one end of the inlet tube, at which point the open end of the inlet tube was closed with a rubber band. The bait casing was placed inside the foraging box adjacent to a 10 g piece of pine wood, taking care that they were partially covered with the sand. Control bait matrix was prepared minus blue colorant, and presented in the same was as the treatment matrix to Formosan subterranean termite workers taken from four different colonies, with 3 boxes per locality totaling twelve boxes of 1000 termites per treatment (Rojas and Morales-Ramos supra). All the experimental boxes were maintained under darkness at 27±1° C. and 90±2% relative humidity. Observations were done every 72 hours until all the termites died. The time to reach 100% mortality was measured and recorded. Mean comparisons among treatments and control were conducted.

## CCCCC(CC)CNc1ccc(NCC(CC)CCCC)c2c1C(=O)c1ccccc1C2=O (centres unmarked) [Calco oil blue V, 9,10-anthracenedione, 1,4-bis[(2-ethylhexyl)amino]]
[1]; day 7
  Bait consumption: 0 g
[1]; day 14
  Bait consumption: 200 g
[1]; day 21
  Bait consumption: 150 g
[1]; day 27
  Bait consumption: 150 g
[1]; day 46
  Bait consumption: 100 g
[1]; day 56
  Bait consumption: 0 g
[1]; day 73
  Bait consumption: 0 g
[1]; day 83
  Bait consumption: 0 g
[1]; day 102
  Bait consumption: 0 g
[1]; day 159
  Bait consumption: 0 g
[1]; day 221
  Bait consumption: 0 g
[1]; day 251
  Bait consumption: 0 g
[1]; day 281
  Bait consumption: 0 g
C. formosanus; 225 ppm Calco oil blue, laboratory conditions
  mean time to kill C. formosanus: 2.0 months
C. formosanus; 225 ppm blue colorant in combination with a chitin synthesis inhibitor (50-175 ppm)
  repellence to the termites: without any signs of repellence
C. formosanus; 225 ppm blue colorant in combination with a chitin synthesis inhibitor (50-175 ppm), preliminary results
  time to induce FS termite mortality: ≤ 2 months
C. formosanus; colorant doses higher than 500 ppm
  repellence to the termites: Some repellence was observed
C. formosanus; concentrations greater than 500 and up to 1000 ppm
  Bait consumption: bait consumption was reduced
C. formosanus; concentrations greater than 500 and up to 1000 ppm, compared with 225 ppm
  mean killing times: not significantly different
[2]; 1 Month, Calco oil blue V 50 ppm + Diflubenzuron 175 ppm
  Groups of 1000 termite workers alive: 11
[2]; 1 Month, Calco oil blue V 100 ppm + Diflubenzuron 175 ppm
  Groups of 1000 termite workers alive: 9
[2]; 1 Month, Calco oil blue V 225 ppm + Diflubenzuron 50 ppm
  Groups of 1000 termite workers alive: 7
[2]; 1 Month, Calco oil blue V 500 ppm + Diflubenzuron 50 ppm
  Groups of 1000 termite workers alive: 9
[2]; 2 Months, Calco oil blue V 50 ppm + Diflubenzuron 175 ppm
  Groups of 1000 termite workers alive: 10
[2]; 2 Months, Calco oil blue V 100 ppm + Diflubenzuron 175 ppm
  Groups of 1000 termite workers alive: 4
[2]; 2 Months, Calco oil blue V 225 ppm + Diflubenzuron 50 ppm
  Groups of 1000 termite workers alive: 2
[2]; 2 Months, Calco oil blue V 500 ppm + Diflubenzuron 50 ppm
  Groups of 1000 termite workers alive: 4
[2]; 3 Months, Calco oil blue V 50 ppm + Diflubenzuron 175 ppm
  Groups of 1000 termite workers alive: 5
[2]; 3 Months, Calco oil blue V 100 ppm + Diflubenzuron 175 ppm
  Groups of 1000 termite workers alive: 1
[2]; 3 Months, Calco oil blue V 225 ppm + Diflubenzuron 50 ppm
  Groups of 1000 termite workers alive: 0
[2]; 3 Months, Calco oil blue V 500 ppm + Diflubenzuron 50 ppm
  Groups of 1000 termite workers alive: 3
[2]; after a month and a half, 50 ppm or 100 ppm calco blue + 175 ppm diflubenzuron
  effect on molting of immature termites: immature termites molted prematurely
[2]; after a month, 225 ppm calco blue + 50 ppm diflubenzuron
  effect on molting of immature termites: immature termites molted prematurely
[2]; calco blue + diflubenzuron combination, depending on health and age of the colony
  time to mortality of a 1000-worker colony: about 4 weeks
[2]; calco blue concentrations above 750 ppm
  palatability of the bait: unpalatable
[2]; calco blue concentrations above 1000 ppm
  Bait consumption: consumption is almost nonexistent
[2]; concentration of blue >225 ppm
  time some termite colonies required to begin feeding on the formulations: more than 8 hrs
[2]; exposure to formulation containing calco oil blue V and diflubenzuron, control boxes alive after 3 months
  time until experimental colony was dead: about two months and a half
